Measured values from PubChem BioAssay AID2799 (Sanford-Burnham Center for Chemical Genomics, 2010).

System: HEK293 NOD2/MDP-induced NF-kB reporter, inhibition
Experiment: NOD2 signaling inhibitors, analog potency, SAR follow-up, cell-based, set 3 (AID 2799)

CCCCn1c(SCC(=O)Nc2nnc(CC)s2)nc2c1c(=O)n(C)c(=O)n2C
IC50: 7.12 µM
